From patent US12023384B2, “Immunogenic peptides comprising an MHC class II T cell epitope and a redox motif” (IMCYSE SA, priority 2014, dated 2024)
No end group written: not given here.

Legend:
[1] = Evaluation of reductase activity on a synthetic peptide (fluorescence de-quenching); format: biochemical; details: peptide 25 μM, 2.5 μM (FITC-Gly-Cys-Asp)ox, PBS, 40 minutes, 25° C., fluorescence 530 nm
Experimental: The reductase activity of the peptides is determined using a fluorescent described in Tomazzolli et al. (2006) Anal. Biochem. 350, 105-112. Two peptides with a FITC label become self-quenching when they covalently attached to each other via a disulfide bridge. Upon reduction by a peptide in accordance with the present invention, the reduced individual peptides become fluorescent again.
Control experiments were performed with a peptide with a “normal” reducing peptide, i.e. a peptide with a redox motif but without additional histidine and with a peptide comprising no redox motif.
A FITC -NH-Gly-Cys-Asp-COOH peptide was synthesized (Eurogentec, Belgium) and self-quenched by solubilization in DMSO ((FITC-Gly-Cys-Asp)ox). The reduction of 2.5 μM (FITC-Gly-Cys-Asp)ox was followed on a 96 well plate during 40 minutes (25° C.) after incubation in PBS with peptide (25 μM) as listed in the accompanying table, or with 2 mM Dithiothreitol (DTT). Reduction was measured as a function of increase in fluorescence read at 530 nm after excitation at 494 nm, using a CytoFluor® multiplate reader (Applied Biosystems). Results are shown in the table of example 10 under the heading “Reductase activity”.

Human recombinant CD4 = Human recombinant CD4 (Homo sapiens, UniProt P01730); experiment: Polymerization of human recombinant CD4 (non-reducing PAGE); format: biochemical; set-up: key: The Table indicates whether or not a polymerization had occurred (+); details: 50 μM peptide, 300 ng recCD4, Hepes buffer, 15 minutes at 68° C.
Experimental: Fifty μM of DTT is used as a positive control under the same conditions. LDS sample buffer (7.5 μl; non-reducing) is then added to 15 μl of the peptide/CD4 mixture. The mixture is then submitted to non-reducing PAGE. After Coomassie Blue staining, protein bands are analyzed for the presence of monomeric, dimeric or multimeric recCD4, as identified by the decreased migratory capacities into the gel. The Table indicates whether or not a polymerization had occurred (+).

[2] = system: polyclonal CD4+CD25− cells obtained from animals in which EAE is effective; experiment: Bystander suppression assay with T cell line from immunised mice; format: cell-based, C57BL/6 mice; details: CD4+ T cell line from mice immunised 3 x 20 μg sc on aluminium hydroxide, after four re-stimulations
Experimental: Groups of C57BL/6 mice are immunised subcutaneously (20 μg) with the peptide of example 1 which contains the modified sequence motif [SEQ ID NO: 1] or control peptide [SEQ ID NO: 2, 4 or 7] adsorbed onto aluminium hydroxide. Three injections are performed at 2-week intervals. Ten days after the last immunisation, mice are sacrificed and CD4+ T cells (2×10^6 cells) are prepared from the spleen using magnetic beads. CD4+ T cells are then stimulated in vitro by the MOG T cell epitope (20 μg/ml) presented by adherent spleen cells (2×10^6 cells).
After four re-stimulations, a T cell line is tested in a bystander suppression assay with, as target cells, polyclonal CD4^+CD25^− cells obtained from animals in which EAE (Experimental autoimmune encephalomyelitis) is effective.

Row | Reductase activity (%) [1] | CD4 polymerisation (Human recombinant CD4) | Substance | capacity to induce death in target cells [2]
1 | 75% | + | AAACHPCVRSLQPLALEGSLQKRG (proinsulin) [SEQ ID NO: 112, reference compound] | 
2 |  |  | HCPYCSRVVHLYRNGKD [SEQ ID NO: 1] | have the capacity to induce death in target cells
3 | 64% | + | AAHCHPCVRSLQPLALEGSLQKRG (proinsulin) [SEQ ID NO: 113] | 
4 | 0% | + | HAACPYCVRSLQPLALEGSLQKRG (proinsulin) [SEQ ID NO: 109] | 
5 |  |  | CPYCSRVVHLYRNGKD (CPYCSRVVHLYRNGKD-NH2; cysteine pairing not given here) [SEQ ID NO: 7, reference compound] | have the capacity to induce death in target cells
6 | 13% | + | AHACPYCVRSLQPLALEGSLQKRG (proinsulin) [SEQ ID NO: 110] | 
7 | 6% | + | AAACPYCVRSLQPLALEGSLQKRG (proinsulin) [SEQ ID NO: 111, reference compound] | 
8 | 68% | + | H CPYCVRSLQPLALEGSLQKRG (HCPYCVRSLQPLALEGSLQKRG; proinsulin) [SEQ ID NO: 108] | 
9 | 22% | low | AAACHGCVRSLQPLALEGSLQKRG (proinsulin) [SEQ ID NO: 114, reference compound] | 
